According to ChEMBL document CHEMBL1781966, “Lead optimization of 4-imidazolylflavans: new promising aromatase inhibitors” (Eur J Med Chem, 2011):

Target: T1, Aromatase (Homo sapiens, UniProt P11511)
T1 sequence (P11511 whole entry): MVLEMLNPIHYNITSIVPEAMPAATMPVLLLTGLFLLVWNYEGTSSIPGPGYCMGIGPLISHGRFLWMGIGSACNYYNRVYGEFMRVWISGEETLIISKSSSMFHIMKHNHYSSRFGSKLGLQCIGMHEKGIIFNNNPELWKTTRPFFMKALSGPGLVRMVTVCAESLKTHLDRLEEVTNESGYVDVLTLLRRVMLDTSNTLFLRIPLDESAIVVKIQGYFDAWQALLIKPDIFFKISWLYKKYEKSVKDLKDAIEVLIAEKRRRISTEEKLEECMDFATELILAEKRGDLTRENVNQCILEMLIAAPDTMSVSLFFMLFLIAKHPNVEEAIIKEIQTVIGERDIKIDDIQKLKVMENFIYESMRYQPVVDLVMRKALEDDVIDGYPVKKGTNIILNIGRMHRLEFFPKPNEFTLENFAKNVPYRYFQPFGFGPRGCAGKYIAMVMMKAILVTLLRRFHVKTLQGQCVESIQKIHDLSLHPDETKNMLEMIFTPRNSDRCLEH
Test: Inhibition of aromatase in human placental microsomes assessed as inhibition of aromatization of [1,2,6,7-3H] androstenedione by flow scintillation analysis
Set-up: species or system Placenta

| Compound | IC50 [nM] |
| --- | --- |
| N#Cc1ccc(C2CC(n3ccnc3)c3ccc4ccccc4c3O2)cc1 (mixture of isomers) | 78 |
| N#Cc1ccc(C2CC(n3ccnc3)c3ccc4ccccc4c3O2)cc1 (cis isomer) | 534 |
| Oc1ccc(C2CC(n3ccnc3)c3ccc4ccccc4c3O2)cc1 (mixture of isomers) | 32 |
| c1ccc(C2CC(n3ccnc3)c3ccc4ccccc4c3O2)cc1 (trans isomer) | 36 |
| N#Cc1ccc(C2CC(n3ccnc3)c3ccc4ccccc4c3O2)cc1 (stereo in doubt) | 34 |
